This is an account of results in patent EP2292587A1, “PHARMACEUTICAL COMPOSITION FOR INHIBITING THE TRANSCRIPTION FACTOR INDUCIBLE BY HYPOXIA, MODULATORS OF PATHOLOGICAL PROCESSES OF ANGIOGENESIS, ONCOGENESIS, INFLAMMATION, APOPTOSIS, AND CELLULAR THERAPY” (Fundacion De La Comunidad Valenciana Centro De …, priority 2008, dated 2009).

Test [1] has as its system HIF. Nature of the test: luciferase cell assay based on the HIF response elements (HRE), HeLa 9XHRE-LUC. The arrangement: species or system human. To be noted: Homo sapiens, HeLa. From the text:
In order to identify direct inhibitors of the activity of HIF, a stable recombinant line was first constructed from the cervical tumor line, known in scientific literature as HeLa, which contained the deoxyribonucleic acid (DNA) sequences of the region located between positions -985 and -951 of the human vascular endothelial growth factor (hVEGF), repeated nine times (9X) and fused to the luciferase reporter gene (LUC). This plasmid, provided by Dr. Manuel Ortiz de Landazuri from the Hospital de La Princesa of Madrid, called 9XHRE-LUC, was prepared using a commercial kit (Endofree Maxi-Prep; Qiagen, Inc., Valencia, CA). The transfections were performed with FuGene6 (Roche, cat.1814443) according to the manufacturer's instructions, the µg DNA: µg FuGene ratio was 1:3. The transfected cell lines were generated by cotransfection with the vector pCMV-Hygrom which expressed a hygromycin resistance gene in mammalian cells, allowing the selection of the transfected clones. After 48 hours, the growth medium was substituted with fresh medium containing 100 µg/ml hygromycin (Sigma), the clones resistant to the antibiotic were collected and analyzed by means of RT-PCR to select the clone with the desired construct. Routinely, the HeLa 9XHRE-LUC cell line was maintained in exponential growth by means of performing subcultures in DMEM (Invitrogen-Life Technologies, Inc., Carlsbad, CA), supplemented with 10% inactivated fetal bovine serum (Whittacker Bioproducts), penicillin (50 IU/ml), streptomycin (50 µg/ml) (Invitrogen-Life Technologies, Inc., Carlsbad, CA). The cells were cultured at 37°C with a humidified atmosphere containing 5% CO2 and 300 nM Desferoxamine (DFX; Sigma St. Louis, MO).
The compounds of the Collection of the CIPF, coming from a selection of commercial collections of Sigma-Aldrich, were solubilized in DMSO at a final concentration of 5 mM and preserved at -80°C. The concentration of these compounds in the luciferase assay was 1 mcM finally in the well of the multi-well plate in which the reaction was carried out. The luciferase assays were performed in white 96-well plates (Valtecknova ref. 3917), using the kit Bright-Glo™ Luciferase Assay System (Promega, Inc., Madison, WI) following the instructions supplied by the manufacturer.
According to the methodology of the cell assay based on the HIF response elements (Example 1), the intermediate compounds of the synthesis and several synthesized analogs were tested to obtain the SAR of FM19G11.

Test [2] concerns HT29. Description: Western blot of DNA damage response proteins in HT29. The test is classed as cell-based, human. The conditions noted are these: 0.25 or 0.5 µM, 24 hours. The source says:
According to the results obtained by the Western blotting technique, FM19G11 triggers a DNA damage response (DDR) in human colon cancer cells (HT29).

For test [3], the system named is human dental pulp stem cells. Description: Annexin V/PI apoptosis and death in dental pulp stem cells. It is filed as cell-based. The method, then:
The apoptosis studies were conducted from cell cultures subjected to normoxic and hypoxic conditions in the presence and absence of the compound at 0.5 µM. The presence of phosphatidylserine in the outer part of the plasma membrane, characteristic of apoptotic processes, was detected using Annexin V (fluorescent dye Annexin V-FITC Apoptosis Detection Kit (BD Pharmingen, BD Biosciences) according to the manufacturer's instructions. The cells subjected to the different conditions were incubated with Annexin V for 30 minutes at 4°C. The cells were then incubated with propidium iodide (PI) and analyzed in a FACScalibur flow cytometer ([…]). PI-/AnnexinV+ cells were defined as early apoptotic cells, PI+/AnnexinV+ cells as late apoptotic cells and PI+/AnnexinV- cells as dead cells. Therefore, the number of total apoptotic cells will be the sum of early and late apoptotic cells.

Test [4] deals with AKT/mTOR/p70S6/Cyclin D1 signaling pathway. Nature of the test: activation kinetics of mTOR signaling pathway, HCT116/p53+/+. It is filed as cell-based, human. The conditions noted are these: 0.5 µM. The method, then:
Due to the crucial role of p53 as a tumor-suppressing agent, it was analyzed in HCT116 cells how FM19G11 affected the activation kinetics of proteins involved in favoring cell cycle progress, specifically the mTOR cell signaling pathway. An increase of cell progress can be due to replicative stress which generates DNA damage (Bartkova, J, Horejsi, Z, Koed, K, Kramer, A, Tort, F, Zieger, K et al., (2005) DNA damage response as a candidate anti-cancer barrier in early human tumorigenesis. Nature 434: 864-70; Bartkova, J, Rezaei, N, Liontos, M, Karakaidos, P, Kletsas, D, Issaeva, N et al., (2006) Oncogene-induced senescence is part of the tumorigenesis barrier imposed by DNA damage checkpoints. Nature 444: 633-7; Di Micco, R, Fumagalli, M, Cicalese, A, Piccinin, S, Gasparini, P, Luise, C et al., (2006) Oncogene-induced senescence is a DNA damage response triggered by DNA hyper-replication. Nature 444: 638-42), it was explored if the DDR triggered by FM19G11 was related to an increase of the cell cycle progress signal modulated by the mTOR signaling pathway. […]

Like-named read-outs stand apart in the source and are kept apart here.

Turning to `Cc1ccc(C(=O)COC(=O)c2cccc(NC(=O)c3ccc([N+](=O)[O-])cc3[N+](=O)[O-])c2)cc1` [FM19G11, 2-oxo-2-(p-tolyl)ethyl 3-((2,4-dinitro)benzamido)benzoate], the half-inhibitory concentration (IC50) in test [1] came to 0.08 µM; in test [1] (6 h, read-out: IC50 from dose response curve (Figure 2 B)), 0.08 µM; in test [1] (read-out: IC50 HRE (µM)), 0.08 µM. Further, the “phosphorylation of DDR proteins (H2AX, MLH1, MSH6, BRCA1, ATM, ATR, CHK1, CHK2, p53)” value in test [2] is reported as “efficiently increased the phosphorylation”. Further, the “death (decreased in hypoxia)” value in test [3] (0.5 µM) is “reverts the decrease in death”. Further, the “number of total apoptotic cells (reduced by hypoxia)” value in test [3] (0.5 µM, 72 hours) was “capable of reverting said effect”. For the same molecule, the “expression of the tumor suppressor p53” value in test [3] (hypoxia) is reported as “recovery of p53”. The “activation of the AKT/mTOR/p70S6/Cyclin D1 signaling pathway (fold change)” value in test [4] is reported as not below 2.
